Data from Sander's compilation of Henry's law constants (doi:10.1021/je900711h).

Experiment: Henry solubility constant Hcp at 298.15 K (mol/(m3 Pa))
Conditions: reference: O’Farrell and Waghorne (2010)

OCC(F)F [2,2-difluoroethanol]
Henry solubility constant Hcp: 0.92

C1COCOC1 [1,3-dioxane]
Henry solubility constant Hcp: 1.8

COCCOC [1,2-dimethoxyethane]
Henry solubility constant Hcp: 2.1

CC(C)=O [propanone]
Henry solubility constant Hcp: 0.33

CCC(=O)CC [3-pentanone]
Henry solubility constant Hcp: 0.21

CC(=O)CF [1-fluoro-2-propanone]
Henry solubility constant Hcp: 0.46

O=C1CCCC1 [cyclopentanone]
Henry solubility constant Hcp: 2.8

OCC(Cl)Cl [2,2-dichloroethanol]
Henry solubility constant Hcp: 0.37

CCO [ethanol]
Henry solubility constant Hcp: 2.2

CC(=O)C(Cl)Cl [1,1-dichloro-2-propanone]
Henry solubility constant Hcp: 0.33
